# Legend:
# Assay in all cases: NCI 60 cell panel SRB screen
# HL-60(TB) = assay type: cell-based; conditions: Homo sapiens, single dose 10 μM, read-out: percent cell growth promotion
# MOLT-4 = assay type: cell-based; conditions: Homo sapiens; MOLT-4, single dose 10 μM; read-out: percent cell growth promotion
# A549/ATCC = assay type: cell-based; conditions: Homo sapiens, single dose 10 μM, read-out: percent cell growth promotion
# HOP-92 = assay type: cell-based; conditions: Homo sapiens; HOP-92, single dose 10 μM; read-out: percent cell growth promotion
# NCI-H460 = assay type: cell-based; conditions: Homo sapiens; NCI-H460, single dose 10 μM; read-out: percent cell growth promotion
# HCC-2998 = assay type: cell-based; conditions: Homo sapiens; HCC-2998, single dose 10 μM; read-out: percent cell growth promotion
# HT29 = assay type: cell-based; conditions: Homo sapiens, HT-29; HT29, single dose 10 μM; read-out: percent cell growth promotion
# KM12 = assay type: cell-based; conditions: Homo sapiens; KM12, single dose 10 μM; read-out: percent cell growth promotion
# SF-268 = assay type: cell-based; conditions: Homo sapiens; SF-268, single dose 10 μM; read-out: percent cell growth promotion
# UACC-257 = assay type: cell-based; conditions: Homo sapiens, UACC-257, read-out: percent cell growth promotion
# OVCAR-3 = assay type: cell-based; conditions: Homo sapiens; OVCAR-3, single dose 10 μM; read-out: percent cell growth promotion
# OVCAR-8 = assay type: cell-based; conditions: Homo sapiens; OVCAR-8, single dose 10 μM; read-out: percent cell growth promotion
# NCI/ADR-RES = assay type: cell-based; conditions: Homo sapiens, single dose 10 μM, read-out: percent cell growth promotion
# SK-OV-3 = assay type: cell-based; conditions: Homo sapiens; SK-OV-3, single dose 10 μM; read-out: percent cell growth promotion
# RXF 393 = assay type: cell-based; conditions: Homo sapiens; RXF 393, single dose 10 μM; read-out: percent cell growth promotion
# TK-10 = assay type: cell-based, human; conditions: Homo sapiens; TK-10, single dose 10 μM; read-out: percent cell growth promotion
# UO-31 = assay type: cell-based; conditions: Homo sapiens; UO-31, single dose 10 μM; read-out: percent cell growth promotion
# PC-3 = assay type: cell-based; conditions: Homo sapiens; PC-3, single dose 10 μM; read-out: percent cell growth promotion
# MDA-MB-468 = assay type: cell-based; conditions: Homo sapiens, MDA-MB-468; MDA-MBA-468, single dose 10 μM; read-out: percent cell growth promotion
# In short: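 Cells in RPMI 1640 with 5% FBS, preincubated 24 h, then exposed to five concentrations for 48 h at 37 °C. TCA fixation, SRB staining, absorbance at 515 nm; a time-zero plate allows GI50 (50% reduction in net protein gain), TGI and LC50 (50% loss versus start).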
SMILES,activity at 10 µM (HL-60(TB)),activity at 10 µM (MOLT-4),activity at 10 µM (A549/ATCC),activity at 10 µM (HOP-92),activity at 10 µM (NCI-H460),activity at 10 µM (HCC-2998),activity at 10 µM (HT29),activity at 10 µM (KM12),activity at 10 µM (SF-268),activity at 10 µM (UACC-257),activity at 10 µM (OVCAR-3),activity at 10 µM (OVCAR-8),activity at 10 µM (NCI/ADR-RES),activity at 10 µM (SK-OV-3),activity at 10 µM (RXF 393),activity at 10 µM (TK-10),activity at 10 µM (UO-31),activity at 10 µM (PC-3),activity at 10 µM (MDA-MB-468)
"Cc1nnc(N2CCN(c3ccccc3)CC2)c2ccccc12 [Compound 8g, 1-Methyl-4–(4-phenylpiperazin-1-yl)phthalazine]",103%,110%,99.3%,95.9%,105%,109%,98.3%,109%,108%,93%,108%,97.1%,107%,96.5%,105%,97.2%,108%,99.4%,98.8%
"CCOC(=O)N1CCN(c2nncc3ccccc23)CC1 [Compound 8a, Ethyl 4-(phthalazin-1-yl)piperazine-1-carboxylate]",108%,98.6%,99.6%,104%,105%,117%,106%,104%,104%,95.8%,105%,97.7%,102%,105%,102%,110%,91.3%,92.6%,97.7%
"CCOC(=O)N1CCN(c2nnc(C)c3ccccc23)CC1 [Compound 8f, Ethyl 4–(4-methylphthalazin-1-yl)piperazine-1-carboxylate]",114%,109%,94.1%,112%,104%,99.8%,96%,107%,101%,92.4%,112%,102%,109%,101%,108%,90.6%,92.2%,101%,104%

# Source: paper PMC6691788, “Design and synthesis of phthalazine-based compounds as potent anticancer agents with potential antiangiogenic activity via VEGFR-2 inhibition” (Journal of Enzyme Inhibition and Medicinal Chemistry, 2019)
